Source: US20250382621A1, “IMMUNE EFFECTOR CELL THERAPIES WITH ENHANCED EFFICACY” (Novartis AG, priority 2015, published 2025)
Structures can show the parent of a compound that is named as a salt. Where two headings read alike, the source gives them in different places.

Tests used:
full-length LSD1 = target: T1, full-length LSD1 (Homo sapiens, UniProt O60341); assay: FL-LSD1 LC-MS assay; assay type: biochemical; details: 0.4 nM FL-LSD1, H3K4me1 peptide substrate, 60 min room temperature; read-out: LCMS IC50 (LSD1 IC50 as measured by LCMS)
T1 construct: the full-length LSD1 and 0.5 pM FAD in reaction buffer
Description: Representative compounds of the present disclosure were serially and separately diluted 3-fold in DMSO to obtain a total of twelve concentrations. […] The data were then fit to a dose response equation using the program Helios to get the IC50 values of the test compound.

Pan CD3+ T cells = assay: Dose response of LSD1 inhibitors on T cell phenotypes; details: for CD4+ Tscm percentage: at 100 nM; for EC50: Homo sapiens, T-cell
Experimental: Cells were isolated from in vitro culture, washed once in MACS+0.5% BSA buffer, and stained on ice using either biotinylated Protein L followed by incubated with a fluorochrome-conjugated streptavidin reagent or an antibody recognizing the given target antigen. In all analyses, the population of interest was gated based on forward vs side scatter characteristics, followed by singlet gating, and live cells were gated.
The following parameters were investigated: • 1. Ratio of CD8/CD4 were calculated; • 2. % Tscm, Tem, Tem of CD3+ T cells; • 3. Ratios of Tscm/Tem and Tscm/Tcm of CD3+ T cells were calculated; • 4. % Tscm, Tem, Tem of CD8+ or CD4+ T cells were calculated; • 5. Ratios of Tscm/Tem and Tscm/Tcm of CD8+ or CD4+ T cells were calculated; and/or • 6. In the case of CAR+-T cells, percentage of Tscm, Tem, Tem of CD19-CAR+ T, and BCMA-10-CAR+ T cells were evaluated.
The Tscm population were evaluated as double CD45RA+CCR7+ or triple CD45RA+CCR7+CD62L+ in a given total live CD3+ or subset CD4+ or CD8+ T cell population. Tem were presented as double CD45RA−CCR7− and Tem as CD45RA−CCR7+ in a given total live CD3+ or subset CD4+ or CD8+ T cell population (FIG. 19 and FIG. 25 illustrate the gating strategies).
In all instances, LSD inhibitor compounds were either resuspended in water (H2O) and/or DMSO, depending on compound solubility. In all instances compounds were added throughout the ex vivo T cell culture, and T cells were washed extensively prior to assay. […] In the figures, “control” refers to vehicle with no LSD inhibitor compound added. For Pan CD3+ T cell expansion experiment, compound treatment was started at 4 h or 24 h after activation; for CART cell production, compound treatment was started at 48 h after viral transduction, and all treatments continued through culture period in all conditions.
Compounds were refreshed every 2-3 days when fresh media is replenished. Following 10 days of expansion, T cells were harvested and de-beaded and their phenotypes were analyzed by flow cytometry using antibodies against CD3, CD4, CD8, CD45RA, CCR7, CD62L, CD27 and CD28 plus live/dead dye to exclude the dead cell population.

T cells = assay: T cell phenotype after expansion with LSD1 shRNA; assay type: cell-based, human; details: for enrichment of TSCM in resulting CD4+ T cell population: vs normal expansion
Experimental: Flow cytometry was performed on a four laser Fortessa (Becton-Dickinson).
T cells were isolated by negative selection and expanded with anti-CD3/CD28 beads at a 3:1 ratio for 10 days. On day 1, T cells were transduced with lentiviral expression vectors containing LSD1 shRNA targeting sequences that co-expressed the fluorescent protein mCherry. Following expansion, T cell phenotypes of mCherry+ T cells were assessed by flow cytometry.

[1] = anti-CD3/CD28 beads 3:1, 10 days, mCherry+ cells

How did the IC50 (full-length LSD1) turn out when `Cc1ccc(-c2ncc(OC[C@@H]3CCNC3)cc2-c2ccc(C#N)cc2)cc1` [Compound C, (R)-4-(5-(pyrrolidin-3-ylmethoxy)-2-(p-tolyl)pyridin-3-yl)benzonitrile] was run?
Its IC50 is 30 nM.

How did the “CD4+ Tscm percentage” value (Pan CD3+ T cells) turn out when `Cc1cc2c(cc1C#N)c(-c1cccc(N)c1C)cn2[C@H]1CC[C@H](O)CC1` [Compound 93, Trans-3-(3-amino-2-methylphenyl)-1-(4-hydroxycyclohexyl)-6-methyl-1H-indole-5-carbonitrile] was run?
The value was “about 5%”.

“LSD1 2: shRNA to LSD1, sequence encoding shRNA SEQ ID NO: 127 (DNA CAGAAGGCCTAGACATTAAACCTCGAGGTTTAATGTCTAGGCCTTCTGTTTTTTGA)” was tested. Which “enrichment of TSCM in resulting CD4+ T cell population” value (T cells; CD4+ T cells) did it give?
Its value is “enriched in TSCM”.

What about the “percentage of CD8+ T cells having the TSCM phenotype (CD45RA+CD62L+CCR7+CD27+CD95+)” value (T cells; [1]) of the same molecule?
Its value is ~50%.

For `c1ccc([C@@H]2C[C@H]2NC2CCNCC2)cc1` (relative stereo) [LSD1i-GSK, rel-N-[(1R,2S)-2-Phenylcyclopropyl]-4-Piperidinamine hydrochloride (1:2)], which “total expansion rate of total cells” value (Pan CD3+ T cells; 10 day expansion) is on record?
Its value is “without changing the total expansion rate of total cells”.

And the “ratio of CD8/CD4” value (Pan CD3+ T cells; 10 day expansion, dose escalation)?
Its value is “can significantly increase the ratio of CD8/CD4”.

What about the EC50 (Pan CD3+ T cells; read-out: EC50 for inducing Tscm CD3+ T cells) of the same molecule?
Its EC50 is 1.08 nM.

And the EC50 (Pan CD3+ T cells; read-out: EC50 for inducing Tscm CD8+ T cells)?
Its EC50 is 1.08 nM.

What about the “CD4+ Tscm percentage” value (Pan CD3+ T cells) of the same molecule?
The value was “about 5%”.

And the “ratio of Tscm/Tem of CD3+ T cells” value (Pan CD3+ T cells; dose elevation, Tscm/Tcm unchanged)?
Its value is “increases in response to dose elevation”.

What about the “ratio of Tscm/Tem of CD8+ T cells” value (Pan CD3+ T cells; dose elevation, hardly seen in the CD4+ population) of the same molecule?
Its value is “significantly increases in response to dose elevation”.

And the “CD3+ Tscm and Tem percentage” value (Pan CD3+ T cells; observed between 1 nM to 100 nM, Tcm remain the same)?
The value was “could increase/sustain CD3+ Tscm, decrease Tem, in a dose responsive fashion”.

And the “CD8+ Tscm, CD4+ Tscm and Tem percentage” value (Pan CD3+ T cells; observed between 1 nM to 100 nM, Tcm unchanged)?
The value was “could increase/sustain CD8+ Tscm and CD4+ Tscm, decrease Tem, in a dose responsive fashion”.

B1: LSD1 1A: shRNA to LSD1, sequence encoding shRNA SEQ ID NO: 125 (nucleic acid)
DNA: CGGTTGCTAGAAGCTACATCTGTTAATATTCATAGCAGATGTAGCTTCTAGCAACCGTTTTTTGA
With B1 as the molecule, how does the “enrichment of TSCM in resulting CD4+ T cell population” value (T cells; CD4+ T cells) read?
The value was “enriched in TSCM”.

And the “percentage of CD8+ T cells having the TSCM phenotype (CD45RA+CD62L+CCR7+CD27+CD95+)” value (T cells; [1])?
Its value is ~50%.

B2: LSD1 1B: shRNA to LSD1, sequence encoding shRNA SEQ ID NO: 126 (nucleic acid)
DNA: CGGTTGCTAGAAGTTACATTTGTTAATATTCATAGCAGATGTAGCTTCTAGCAACCGTTTTTTGA
Which results are given for B2?
percentage of CD4+ T cells having the TSCM phenotype (CD45RA+CD62L+CCR7+CD27+CD95+) (T cells; CD4+ T cells, anti-CD3/CD28 beads 3:1, 10 days, mCherry+ cells): up to 20%; percentage of CD8+ T cells having the TSCM phenotype (CD45RA+CD62L+CCR7+CD27+CD95+) (T cells; [1]): ~50%
